Numbers after ± are expanded uncertainties.
Columns and labels:
[1] = DTA
[2] = Molar enthalpy of transition or fusion; details: DSC

Compound	Triple point temperature ([1]; Crystal 1) [K]	Triple point temperature ([1]; Crystal 2) [K]	Triple point temperature ([1]; Crystal 3) [K]	Molar enthalpy of transition or fusion ([2]; Crystal 1) [kcal/mol]	Molar enthalpy of transition or fusion ([2]; Crystal 2) [kcal/mol]	Molar enthalpy of transition or fusion ([2]; Crystal 3) [kcal/mol]	Glass transition temperature ([1]; Glass) [°C]
CCCCCCOCn1cc[n+](COCCCCCC)c1.F[B-](F)(F)F	309.5 ± 6.2	243.6 ± 4.9	142.6 ± 2.9	3.06 ± 0.12	0.167 ± 0.0717	0.478 ± 0.0717	–
CCCCCCOCn1cc[n+](COCCCCCC)c1.O=S(=O)([N-]S(=O)(=O)C(F)(F)F)C(F)(F)F	273.8 ± 5.5	–	–	3.82 ± 0.12	–	–	-81.3 ± 3.9
